Read-outs that look alike come from different tables or passages of the source. Where a SMILES comes first, the peptide text is derived from it. Bridges are numbered along the chain shown (N, C = ends).
Assays:
HepG2 cells = experiment: Cell uptake study; type: cell-based, human; settings: 37°C, ~370 kBq/well, gamma counter, n = 3, mean ± SD
Procedure: HepG2 cells were seeded into 48-well plates at a density of 2 × 10^5 cells per well 24 h prior to the experiment. HepG2 cells were then incubated with ^99mTc-labeled NGR peptides (~370 kBq/well) at 37°C for 15, 30, 60, 120, and 240 min. After incubation, tumor cells were washed three times with ice cold PBS and harvested by trypsinization with 0.25% trypsin/0.02% EDTA (Hyclone, USA). Cell suspensions were collected and measured in a gamma counter (Zhida, Shannxi, China). Cell uptake data was presented as percentage of total input radioactivity added to the culture medium after decay correction. Experiments were performed twice with triplicate wells.

Biodistribution studies = type: in vivo; settings: female, BALB/c nude, mouse, total radioactivity; for tissue uptake at 1 h / tissue uptake at 4 h / tissue uptake at 8 h / tissue uptake at 12 h: n = 5, mean ± SD; for tissue uptake at 4 h: 4 h postinjection; for tissue uptake at 8 h: 8 h postinjection; for tissue uptake at 12 h: 12 h postinjection
Procedure: HepG2 cells were grown in high glucose DMEM culture medium. All cell lines were cultured in medium supplemented with 10% (v/v) fetal bovine serum (Gibco, USA), 1% mycillin, and 1% Glutamine (Beyotime, China) at 37°C in a humidified atmosphere with 5% CO2. Using female BALB/c nude mice (4–6 weeks of age), HepG2 tumor model was established by subcutaneous injection of 2 × 10^6 HepG2 tumor cells (0.1 mL) into the right upper flanks. When the tumor volume reached 0.8~1.0 cm in diameter (2-3 weeks after inoculation), the tumor-bearing mice were used for SPECT imaging and biodistribution studies. All animal studies were approved by Clinical Center at the FMMU.
Nude mice bearing human HepG2 hepatoma were randomly divided into 5 groups and injected with ~7.4 MBq of ^99mTc-NGR with or without excess unlabelled NGR peptide (20 mg/kg). After injection of the tracer, mice were sacrificed and dissected. The radioactivity in the HepG2 tumor, major organs, and muscle were collected and weighed wet with tubes (%ID/g). Mean uptake (%ID/g) for a group of animals was calculated with standard deviations. Values were expressed as mean ± SD (n = 5/group).

[1] = In vitro stability in mouse serum (radio-TLC); type: in vitro ADME; settings: 37°C, 12 h incubation, percentage of parent tracer by radio-TLC, read-out: ^99mTc-NGR peptide remained intact
Procedure: (§1) The stability of ^99mTc-labeled NGR peptide in PBS and mouse serum at 37°C was studied at 1, 3, 6, and 12 h. Then the percentage of parent tracer was determined by radio-TLC (Table 1).

[2] = In vitro stability in PBS (radio-TLC); type: physicochemical; settings: PBS pH 7.4, 37°C, 12 h incubation, percentage of parent tracer by radio-TLC
Procedure: as §1

[3] = blood, iv, ~7.4 MBq i.v., read-out: Blood uptake
[4] = heart, iv, ~7.4 MBq i.v., read-out: Heart uptake
[5] = intestine, iv, ~7.4 MBq i.v., read-out: Intestine uptake
[6] = iv, HepG2 tumor, ~7.4 MBq i.v., read-out: Tumor uptake
[7] = kidney, iv, ~7.4 MBq i.v., read-out: Kidney uptake
[8] = liver, iv, ~7.4 MBq i.v., read-out: Liver uptake
[9] = lung, iv, ~7.4 MBq i.v., read-out: Lung uptake
[10] = muscle, iv, ~7.4 MBq i.v., read-out: Muscle uptake
[11] = spleen, iv, ~7.4 MBq i.v., read-out: Spleen uptake
[12] = stomach, iv, ~7.4 MBq i.v., read-out: Stomach uptake

N=C(N)NCCC[C@@H]1NC(=O)CNC(=O)[C@H](CC(N)=O)NC(=O)[C@@H](NC(=O)CNC(=O)CNC(=O)[C@@H](N)Cc2ccc(O)cc2)CSSC[C@@H](C(=O)O)NC1=O [^99mTc-NGR, metal not drawn] (H-YGGCNGRC-OH; disulfide 4-8)
uptake in HepG2 cells (percentage of total input radioactivity) (HepG2 cells; 15 min): about 0.49 ± 0.05%
uptake in HepG2 cells (percentage of total input radioactivity) (HepG2 cells; 2 h (maximum)): 1.52 ± 0.13%
uptake in HepG2 cells (percentage of total input radioactivity) (HepG2 cells; 4 h): About 1.35 ± 0.27%
tissue uptake at 1 h (Biodistribution studies; blood, iv, 1 h postinjection, ~7.4 MBq i.v., read-out: Blood uptake): 3.82 ± 0.41 %ID/g
tissue uptake at 4 h (Biodistribution studies; [3]): 1.75 ± 0.39 %ID/g
tissue uptake at 8 h (Biodistribution studies; [3]): 0.98 ± 0.22 %ID/g
tissue uptake at 12 h (Biodistribution studies; [3]): 0.75 ± 0.31 %ID/g
tissue uptake at 1 h (Biodistribution studies; blood, iv, Blocking (1 h), coinjection of unlabelled NGR 20 mg/kg, read-out: Blood uptake): 2.56 ± 0.34 %ID/g
tissue uptake at 1 h (Biodistribution studies; heart, iv, 1 h postinjection, ~7.4 MBq i.v., read-out: Heart uptake): 3.74 ± 0.54 %ID/g
tissue uptake at 4 h (Biodistribution studies; [4]): 2.26 ± 0.33 %ID/g
tissue uptake at 8 h (Biodistribution studies; [4]): 1.15 ± 0.32 %ID/g
tissue uptake at 12 h (Biodistribution studies; [4]): 1.07 ± 0.25 %ID/g
tissue uptake at 1 h (Biodistribution studies; heart, iv, Blocking (1 h), coinjection of unlabelled NGR 20 mg/kg, read-out: Heart uptake): 2.73 ± 0.29 %ID/g
tissue uptake at 1 h (Biodistribution studies; intestine, iv, 1 h postinjection, ~7.4 MBq i.v., read-out: Intestine uptake): 2.65 ± 1.06 %ID/g
tissue uptake at 4 h (Biodistribution studies; [5]): 2.18 ± 0.96 %ID/g
tissue uptake at 8 h (Biodistribution studies; [5]): 1.93 ± 0.22 %ID/g
tissue uptake at 12 h (Biodistribution studies; [5]): 1.6 ± 0.27 %ID/g
tissue uptake at 1 h (Biodistribution studies; intestine, iv, Blocking (1 h), coinjection of unlabelled NGR 20 mg/kg, read-out: Intestine uptake): 2.4 ± 0.59 %ID/g
tissue uptake at 1 h (Biodistribution studies; iv, HepG2 tumor, 1 h postinjection, ~7.4 MBq i.v., read-out: Tumor uptake): 2.52 ± 0.83 %ID/g
tissue uptake at 4 h (Biodistribution studies; [6]): 3.03 ± 0.71 %ID/g
tissue uptake at 8 h (Biodistribution studies; [6]): 3.26 ± 0.63 %ID/g
tissue uptake at 12 h (Biodistribution studies; [6]): 2.81 ± 0.25 %ID/g
tissue uptake at 1 h (Biodistribution studies; iv, HepG2 tumor, Blocking (1 h), coinjection of unlabelled NGR 20 mg/kg, read-out: Tumor uptake): 1.65 ± 0.61 %ID/g
tissue uptake at 1 h (Biodistribution studies; kidney, iv, 1 h postinjection, ~7.4 MBq i.v., read-out: Kidney uptake): 7.93 ± 2.13 %ID/g
tissue uptake at 4 h (Biodistribution studies; [7]): 7.03 ± 0.95 %ID/g
tissue uptake at 8 h (Biodistribution studies; [7]): 6.21 ± 0.43 %ID/g
tissue uptake at 12 h (Biodistribution studies; [7]): 5.96 ± 0.41 %ID/g
tissue uptake at 1 h (Biodistribution studies; kidney, Blocking (1 h), coinjection of unlabelled NGR 20 mg/kg, read-out: Kidney uptake): 5.03 ± 0.97 %ID/g
tissue uptake at 1 h (Biodistribution studies; liver, iv, 1 h postinjection, ~7.4 MBq i.v., read-out: Liver uptake): 4.07 ± 0.76 %ID/g
tissue uptake at 4 h (Biodistribution studies; [8]): 3.85 ± 0.73 %ID/g
tissue uptake at 8 h (Biodistribution studies; [8]): 3.44 ± 0.52 %ID/g
tissue uptake at 12 h (Biodistribution studies; [8]): 3.26 ± 0.47 %ID/g
tissue uptake at 1 h (Biodistribution studies; liver, Blocking (1 h), coinjection of unlabelled NGR 20 mg/kg, read-out: Liver uptake): 3.27 ± 0.16 %ID/g
tissue uptake at 4 h (Biodistribution studies; [9]): 2.13 ± 0.44 %ID/g
tissue uptake at 8 h (Biodistribution studies; [9]): 1.86 ± 0.38 %ID/g
tissue uptake at 12 h (Biodistribution studies; [9]): 1.21 ± 0.31 %ID/g
tissue uptake at 1 h (Biodistribution studies; lung, iv, Blocking (1 h), coinjection of unlabelled NGR 20 mg/kg, read-out: Lung uptake): 2.04 ± 0.28 %ID/g
tissue uptake at 1 h (Biodistribution studies; muscle, iv, 1 h postinjection, ~7.4 MBq i.v., read-out: Muscle uptake): 0.53 ± 0.33 %ID/g
tissue uptake at 4 h (Biodistribution studies; [10]): 0.46 ± 0.11 %ID/g
tissue uptake at 8 h (Biodistribution studies; [10]): 0.43 ± 0.14 %ID/g
tissue uptake at 12 h (Biodistribution studies; [10]): 0.39 ± 0.22 %ID/g
tissue uptake at 1 h (Biodistribution studies; muscle, iv, Blocking (1 h), coinjection of unlabelled NGR 20 mg/kg, read-out: Muscle uptake): 0.48 ± 0.27 %ID/g
tissue uptake at 1 h (Biodistribution studies; spleen, iv, 1 h postinjection, ~7.4 MBq i.v., read-out: Spleen uptake): 2.37 ± 0.43 %ID/g
tissue uptake at 4 h (Biodistribution studies; [11]): 2.09 ± 0.6 %ID/g
tissue uptake at 8 h (Biodistribution studies; [11]): 1.88 ± 0.42 %ID/g
tissue uptake at 12 h (Biodistribution studies; [11]): 1.72 ± 0.37 %ID/g
tissue uptake at 1 h (Biodistribution studies; spleen, Blocking (1 h), coinjection of unlabelled NGR 20 mg/kg, read-out: Spleen uptake): 1.89 ± 0.22 %ID/g
tissue uptake at 1 h (Biodistribution studies; stomach, iv, 1 h postinjection, ~7.4 MBq i.v., read-out: Stomach uptake): 3.07 ± 0.56 %ID/g
tissue uptake at 4 h (Biodistribution studies; [12]): 2.2 ± 0.26 %ID/g
tissue uptake at 8 h (Biodistribution studies; [12]): 1.61 ± 0.39 %ID/g
tissue uptake at 12 h (Biodistribution studies; [12]): 1.56 ± 0.32 %ID/g
tissue uptake at 1 h (Biodistribution studies; stomach, Blocking (1 h), coinjection of unlabelled NGR 20 mg/kg, read-out: Stomach uptake): 3.41 ± 0.31 %ID/g
tissue to tissue ratio at 1 h (Biodistribution studies; tumor/kidney, iv, 7.4 MBq, 1 h postinjection, read-out: Tumor-to-normal tissue uptake ratio T/K): 0.32 ± 0.15
tissue to tissue ratio at 1 h (Biodistribution studies; tumor/liver, iv, 7.4 MBq, 1 h postinjection, read-out: Tumor-to-normal tissue uptake ratio T/L): 0.62 ± 0.33
tissue to tissue ratio at 1 h (Biodistribution studies; tumor/muscle, iv, 7.4 MBq, 1 h postinjection, read-out: Tumor-to-normal tissue uptake ratio T/M): 4.75 ± 0.91
tissue to tissue ratio at 8 h (Biodistribution studies; tumor/muscle, iv, 7.4 MBq, 8 h (highest value), read-out: tumor/muscle (T/NT) value): 7.58 ± 1.92
remaining at 12 h [1]: ~92%
^99mTc-NGR peptide remained intact [2]: ~92%

Reference: article PMC4052532, “Biodistribution and SPECT Imaging Study of ^99mTc Labeling NGR Peptide in Nude Mice Bearing Human HepG2 Hepatoma” (BioMed Research International, 2014)
